Tests used:
[1] = test system: human lens cell line FHL124; assay: FHL124 cell growth patch assay; type: cell-based; settings: for growth of FHL124 cells: 4 days
Method: The effect of sigma ligands on human lens cell growth in FHL124 cell line maintained in serum-free media (A) or EMEM supplemented with 5% FCS (B). […] The cells were cultured for 4 days with experimental conditions. Experiments were repeated on 4 occasions. Data are expressed as Mean±S.E.M., the star represents significant difference from untreated control with rimcazole, and box represents significant difference from untreated control with (±)SKF 10047 (test p<0.05).
The effect of sigma-1 ligands on human lens cell growth in FHL 124 cell line maintained in serum-free media. A represents the data of patch area measurement. B represents the dye extraction from each stained patch, ie. cell number. The cells were cultured for 4 days with experimental conditions. Experiments were repeated on 4 occasions. Data are expressed as Mean±S.E.M, the star represents significant difference from untreated control with rimcazole, and ▪ represents significant difference from untreated control with (±)SKF10047 (test p<0.05).
The growth of the spontaneously immortal human lens cell line FHL124 was investigated using a patch assay. Cells grown from a single patch derived from a coverslip and stained with dye to estimate the cell number. […] (FIG. 6). […] Attenuation of rimcazole and BD-1047-mediated growth inhibition by a highly specific sigma-1 agonist confirms that growth inhibition is at least partly mediated through antagonism of sigma-1 sites.

[2] = test system: adult dermal microvascular endothelial cells; assay: MTS cell viability, rescue by sigma-1 agonists; type: cell-based, human; settings: co-administration of equimolar concentrations (10 μM) of sigma-1 agonist
Method: (§1) Human adult male dermal fibroblasts, adult mammary epithelial cells, adult dermal microvascular endothelial cells and bovine lens epithelial cells at low passage were exposed to 10 μM concentrations of the sigma-1 antagonists rimcazole and IPAG for up to 72 hours. Change in cell viability over time was measured in the MTS assay; data points represent mean values (±SD), obtained from wells in triplicate, expressed relative to baseline (pre-treatment) values. Graphs depict representative experiments, performed at least three times.

[3] = test system: human lens epithelial cells on the posterior capsule; assay: in vitro capsular bag growth assay (cell coverage of the posterior capsule); type: cell-based; settings: for growth of human lens cells on the posterior capsule: 3 μm, FIG. 2, FIG. 3
Method: Rate of cell coverage of the posterior capsule beyond the rhexis; 100% represents confluency. Experiments were repeated on 4 occasions. The means and standard errors are display ed.
(§2) Rate of cell coverage of the posterior capsule beyond the rhexis; 100% represents confluency. Experiments were repeated on 4 occasions.
The model previously described by Liu et al (1996) was used. A sham cataract operation was performed on human donor eyes. The resultant capsular bag was then dissected free of the zonules and secured on a sterile 35 mm PMMA petri dish. Eight entomological pins (D1: Watkins and Doncaster Ltd., Kent, UK) were inserted through the edge of the capsule to retain its circular shape. Incubation was at 35° C. in a 5% CO2 atmosphere. Ongoing observations were performed with a Nikon phase-contrast microscope and images captured with a digital camera (Coolpix 950; Nikon. Tokyo, Japan) with associated imaging software (a person, personal communication). In some cases preparations were used for radioactive isotope studies.
(§3) The bags were maintained in Eagle's minimum essential medium (EMEM) or EMEM supplemented with either 3 μM Rimcazole dihydrochloride (rimcazole), 10 μm(+)-SKF 10047 hydrochloride (SKF), and 3 μM or 10 μM BD1047 dihydrochloride (BD1047) (all supplied by TOCRIS) and incubate at 35° C. in a 5% CO2 atmosphere. The medium was replaced every 2 days and ongoing observations and analyses were performed as above.

tumour cells = assay: tumour cell growth inhibition / killing; type: cell-based, human; settings: read-out: IC50 (concentration of drug required to produce 50% growth inhibition) for tumour cells
From the text: It has therefore been proposed that the subcellular localisation of the sigma receptor may contribute to the degree of susceptibility to sigma ligands (Spruce et al Cancer Research 2004). Without wishing to be bound by theory, the present inventors postulated that differential subcellular localisation of the sigma receptor, or other factors, could lead to sigma ligands being differentially potent in lens epithelial cells compared to tumour cells. […] Specifically, the IC50 (the concentration of drug required to produce 50% growth inhibition) of BD-1047 for tumour cells is in the region 50-100 micromolar; in contrast, the IC50 for human lens epithelial cells (in the capsular bag system) is in the region of 10 micromolar.
as §2

[4] = test system: primary human lens epithelial cells on the posterior capsule; assay: pigmentation of lens cells during growth inhibition assays; type: cell-based; settings: sub-lethal dose (3 μM), control cells remained clear, FIG. 8, 9
Method: Phase micrographs of cultured human lens cells on central anterior (upper) and posterior capsule (lower) respectively. The cells were maintained in serum-free or supplemented (3 μM Rimcazole) media for one week. The images were converted to grayscale with Adobe photoshop software.
Formation of pigment granules in human epithelial cells. A. Different stages of pigment granule formation (I-IV) as defined in MNT-1 melanoma cells by Seiji et al. 1963. B. Cross section of human lens epithelial cells grown in (a) control medium and (b) the presence of 3 μM BD1047.
as §3
This pigmentation was also present in cells similarly tested on the rhexis (anterior capsule) removed during preparation of the capsular bag (FIG. 8) and in the FHL-124 lens cell line (not shown). […]

[5] = test system: bovine lens epithelial cells; assay: in vitro cell death assay (MTS cell viability) on tissue culture plastic; type: cell-based; settings: 10 μM, up to 72 hours, FIG. 1
Method: as §1

[6] = test system: lens epithelial cells in the presence of the bovine capsule; settings: versus cells cultured in isolation; cited from earlier work
[7] = test system: human lens epithelial cells; assay: efflux of radioactive isotopes (3H-dopamine, 14C-tyrosine) in capsular bags; type: cell-based; settings: capsular bag system, 3 μM rimcazole
Method: Efflux of (A) ^3H-dopamine and (B) ^14C-tyrosine from human lens epithelial cells in control (SF) and rimcazole supplemented media. Data are presented as mean±6 separate experiments.
Capsular bags were maintained in Eagle's minimum essential medium (EMEM) or EMEM supplemented with 3 μM. Rimcazole dihydrochloride (rimcazole) (TOCRIS) for 7 days (when the pigment granules could be observed in cells). 1 μCl/ml of ^3H-dopamine and 2 μCi/ml of ^14C-tyrosine (Amersham Biosciences) were then added to each dish for an additional 24 hours. At the end point, 10 μl of medium were collected from each dish, and transferred into scintillation vials. The bags were washed briefly twice with EMEM and fresh control or experimental media added for one hour. The medium was then collected into scintillation vials and the procedure repeated eights times. The experiment was then terminated by adding 1 ml of ice-cold 5% Trichloroacetic acid (TCA) (Fisher Chemicals) to each dish. After 30 minutes, the TCA was removed from each well to determine the cytosolic dopamine and tyrosine levels. 1 ml of 250 mM NaOH was then added to each dish to determine the radio-isotope levels in the TCA precipitable fraction. 10 mls of scintillation fluid (Hisafe Supermix) were then added to each scintillation vial and the samples assayed using a Wallac scintillation counter with appropriate background controls. […]

## C=CCN1CCC2(C)c3cc(O)ccc3CC1C2C.Cl (single isomer, unassigned; (+)) [(+)-SKF10047, (+)-SKF 10047 hydrochloride]
[1]; both concentrations, serum free medium, FIG. 5
  rescue of sigma antagonist (rimcazole)-mediated growth inhibition of FHL124 cells: partially rescues
[1]; higher concentrations of BD1047 (10 and 30 μm), FIG. 6
  restoration of growth to BD1047 inhibited FHL124 cells: partially restores growth
[2]
  protection of microvascular endothelial cells from rimcazole and IPAG: protected

## CC(C)=CCN1CCC2(C)c3cc(O)ccc3CC1C2C (single isomer, unassigned; (+)) [(+)-pentazocine]
[2]
  protection of microvascular endothelial cells from rimcazole and IPAG: protected

## CN(C)CCN(C)CCc1ccc(Cl)c(Cl)c1 [BD1047]
[3]
  growth of human lens cells on the posterior capsule: less inhibitory
[3]; 10 μm, FIG. 4
  growth of lens cells on the capsule: potently inhibits growth
[3]; in the capsular bag system
  IC50: ~10 µM
Tumour cells
  IC50: 50 to 100 µM
[1]; lower dose (10 μm), serum-free, FIG. 6
  growth inhibition of FHL124 cells (patch size, protein content): less effective
[4]
  pigmentation of primary human lens epithelial cells: become pigmented

## NC(=NC1C2CC3CC(C2)CC1C3)Nc1ccc(I)cc1 (centres unmarked) [IPAG]
[5]
  susceptibility of primary bovine lens cells in tissue culture compared with tumour cells: almost as susceptible

## C[C@@H]1CN(CCCn2c3ccccc3c3ccccc32)C[C@H](C)N1 [Rimcazole]
[3]
  growth of human lens cells on the posterior capsule: inhibits growth
[3]; contained in the human capsular bag system
  cell killing in human lens epithelial cells: potently induces cell killing
[5]
  susceptibility of primary bovine lens cells in tissue culture compared with tumour cells: almost as susceptible
[1]; 3 and 10 μm, serum free medium, FIG. 5
  growth of FHL124 cells: significantly inhibited
[1]; 5% FCS, higher dose (10 μm), FIG. 5
  growth of FHL124 cells: growth inhibition is less marked
[6]
  ability to induce apoptosis in lens epithelial cells: substantially less able to induce apoptosis
[7]; FIG. 10A
  dopamine efflux: unaffected
[7]; FIG. 10B
  efflux of 14C-tyrosine from lens cells: no effect
[4]
  pigmentation of primary human lens epithelial cells: become pigmented

Source: patent US20090036464A1, “Treatment Of Posterior Capsule Opacification” (priority 2004, published 2009)
